Test results reported in patent US11286258B2, “Nature-inspired anticancer and antibacterial motifs and pharmaceutical composition thereof” (University of Sharjah, priority 2020, dated 2022).
Converted amounts (≈) assume the structure as drawn.

How the values were obtained:
[1] = tested on: MRSA-3 (clinical isolate); experiment: MIC broth microdilution, MRSA-3; assay type: cell-based, Staphylococcus aureus; conditions: Staphylococcus aureus, MRSA; overnight incubation, Mueller-Hinton broth; read-out: MIC MRSA-3 (clinical isolate)
Procedure: (§1) Antibacterial activity: The compounds were tested for the minimum inhibitory concentrations (MIC), which is the lowest concentration of a chemical required to inhibit visible microbial growth following overnight incubation. MIC values were determined using broth microdilution method according to the Clinical and Laboratory Standards Institute guidelines (CLSI, 2015, M07-A10). Mueller-Hinton broth was used as a culture medium in all the experiments. Exponentially growing bacterial cells were prepared in Mueller-Hinton broth at a concentration of approximately 5×10^5 CFU/mL. Two-fold serial dilutions of the test compound (8 concentrations ranged between 100-0.78 μg/mL) were tested. […] In each experiment, solvent (DMSO) was used as a negative control, un-treated control (composing of bacteria in Mueller-Hinton broth) was used as a growth control, blank (culture media alone) was used as sterility control. The 96-well microplate with the test compounds was incubated overnight at 37° C. Turbidity in wells indicated bacterial growth.
(§2) The compounds were tested on six MDR Gram-positive bacteria including three clinical isolates of methicillin-resistant Staphylococcus aureus (MRSA-1, MRSA-2 and MRSA-3) and three reference MRSA strains (ATCC33591, ATCC33592 and ATCC700699). They were also tested on three MDR Gram-negative bacteria including New Delhi metallo-beta-lactamase (NDM-1) positive, carbapenem-resistant E. coli (ATCC BAA2469), extended-spectrum beta-lactamase (ESBL) producing, colistin-resistant E. coli (CDC-AR-0346) and carbapenem-resistant Acinetobacter baumannii (ATCC BAA1605), in addition to two non-MDR bacteria from the same species, namely E. coli (ATCC 25922) Acinetobacter baumannii (ATCC 19606).

[2] = tested on: MRSA-2 (clinical isolate); experiment: MIC broth microdilution, MRSA-2; assay type: cell-based, Staphylococcus aureus; conditions: Staphylococcus aureus, MRSA; overnight incubation, Mueller-Hinton broth; read-out: MIC MRSA-2 (clinical isolate)
Procedure: as §1, §2

[3] = tested on: E. coli ATCC BAA2469 (NDM-1 carbapenem-resistant); experiment: MIC broth microdilution, E. coli ATCC BAA2469; assay type: cell-based, Escherichia coli; conditions: overnight incubation
Procedure: as §1, §2

A549 = experiment: MTT cell viability, A549; assay type: cell-based; conditions: Homo sapiens, lung cancer, 48 h of drug treatment, average of three experiments
Text: (§3) Cell culture: In this study five different cancer cell lines were used, human lung carcinoma (A549), human breast adenoma (MCF-7), Cervical carcinoma (Hela), hepatocellular carcinoma (Hep3B), and colorectal adenocarcinoma (HCT-116). These cells were obtained from the European Collection of Cell Cultures (ECACC, UK). Hep3B cells were maintained in Dulbecco's Modified Eagle Medium (DMEM: Sigma-Aldrich), and the four other cell lines were maintained in Roswell Park Memorial Institute medium (RPMI, Sigma-Aldrich, St. Louis, Mo., USA), which was supplemented with 10% fetal bovine serum (FBS, Sigma-Aldrich) and 1% penicillin/streptomycin (Sigma-Aldrich). Cells were incubated all the time at 37° C. in a humidified atmosphere of 5% CO2. Cell viability studies: Cell viability was assessed using the MTT assay as described before. In brief, all cancer cell lines were seeded at a density of 4×10^4/well in 96 well flat-bottom plates. After 24 h from seeding, cells were treated with the synthesized compounds and left for an incubation period of 48 h. Upon reaching the indicated time point, the media was removed and replaced with 200 μL fresh media containing 0.5 mg/mL of MTT tetrazolium dye (Sigma-Aldrich). Cells were then incubated with MTT solution for 2 h at 37° C. The resultant formazan crystals were dissolved in 200 μl/well of DMSO and absorbance was measured at 570 nm using a microplate reader (Thermo Scientific).

HCT-116 = experiment: MTT cell viability, HCT-116; assay type: cell-based; conditions: Homo sapiens, colon cancer, 48 h of drug treatment, average of three experiments
Text: as §3

6 MRSA strains = experiment: MIC, panel of 6 MRSA strains; assay type: cell-based; conditions: Staphylococcus aureus, across the panel of tested Gram-positive strains, read-out: MIC against all the 6 MRSA strains
Procedure: as §1, §2

MRSA-ATCC33591 = experiment: MIC broth microdilution, MRSA ATCC33591; assay type: cell-based, Staphylococcus aureus; conditions: Staphylococcus aureus; overnight incubation, Mueller-Hinton broth; read-out: MIC MRSA-ATCC33591
Procedure: as §1, §2

MRSA-ATCC33592 = experiment: MIC broth microdilution, MRSA ATCC33592; assay type: cell-based, Staphylococcus aureus; conditions: Staphylococcus aureus; overnight incubation, Mueller-Hinton broth; read-out: MIC MRSA-ATCC33592
Procedure: as §1, §2

[4] = tested on: E. coli CDC-AR-0346 (ESBL, colistin resistant); experiment: MIC broth microdilution, E. coli CDC-AR-0346; assay type: cell-based, Escherichia coli
Procedure: as §1, §2

[5] = tested on: MRSA-1 (clinical isolate); experiment: MIC broth microdilution, MRSA-1; assay type: cell-based, Staphylococcus aureus; conditions: Staphylococcus aureus, MRSA; overnight incubation, Mueller-Hinton broth; read-out: MIC MRSA-1 (clinical isolate)
Procedure: as §1, §2

HEP3B = experiment: MTT cell viability, HEP3B; assay type: cell-based; conditions: Homo sapiens, liver cancer, 48 h of drug treatment, average of three experiments
Text: as §3

MRSA-ATCC700699 (VISA) = experiment: MIC broth microdilution, MRSA ATCC700699 (VISA); assay type: cell-based, Staphylococcus aureus; conditions: for MIC: Staphylococcus aureus, strain intermediately resistant to vancomycin, overnight incubation, read-out: MIC MRSA-ATCC700699 (VISA)
Procedure: as §1, §2

E. coli ATCC25922 = experiment: MIC broth microdilution, E. coli ATCC25922; assay type: cell-based, Escherichia coli; conditions: Escherichia coli, ATCC25922; not MDR; overnight incubation
Procedure: as §1, §2

HELA = experiment: MTT cell viability, HELA; assay type: cell-based; conditions: Homo sapiens, cervical cancer, 48 h of drug treatment, average of three experiments
Text: as §3

MCF-7 = experiment: MTT cell viability, MCF-7; assay type: cell-based; conditions: Homo sapiens, MCF7; breast cancer; 48 h of drug treatment; average of three experiments
Text: as §3

[6] = tested on: Acinetobacter baumannii ATCC 19606; experiment: MIC broth microdilution, A. baumannii ATCC 19606; assay type: cell-based; conditions: Acinetobacter baumannii, ATCC19606; not MDR; overnight incubation
Procedure: as §1, §2

[7] = tested on: Acinetobacter baumannii ATCC BAA1605 (carbapenem-resistant); experiment: MIC broth microdilution, A. baumannii ATCC BAA1605; assay type: cell-based
Procedure: as §1, §2

AGS = experiment: MTT cell viability, AGS; assay type: cell-based; conditions: Homo sapiens, stomach cancer, 48 h of drug treatment, average of three experiments
Procedure: (§4) Cell viability studies: Cell viability was assessed using the MTT assay as described before. In brief, all cancer cell lines were seeded at a density of 4×10^4/well in 96 well flat-bottom plates. After 24 h from seeding, cells were treated with the synthesized compounds and left for an incubation period of 48 h. Upon reaching the indicated time point, the media was removed and replaced with 200 μL fresh media containing 0.5 mg/mL of MTT tetrazolium dye (Sigma-Aldrich). Cells were then incubated with MTT solution for 2 h at 37° C. The resultant formazan crystals were dissolved in 200 μl/well of DMSO and absorbance was measured at 570 nm using a microplate reader (Thermo Scientific).

JIMT1 = experiment: MTT cell viability, JIMT1; assay type: cell-based; conditions: Homo sapiens, JIMT-1; breast cancer; 48 h of drug treatment; average of three experiments
Procedure: as §4

[8] = tested on: normal epithelial cells (HMEC); experiment: Cell viability, normal epithelial cells; assay type: cell-based; conditions: Homo sapiens, 48 h of drug treatment, average of three experiments
Procedure: as §4

Hela cells = experiment: Western blot, autophagy- and iron metabolism-related proteins, Hela; assay type: cell-based, human
Procedure: Western Blotting (autophagy- and iron metabolism-related proteins): Cells were grown in DMEM supplemented with 10% FBS and 1×PEST (Penicillin and streptomycin antibiotics) at 37° C. in incubator having humidified atmosphere with 5% CO2. The media were removed and cells were washed twice with 1× cold PBS. Cells lysis was performed with RIPA lysis buffer containing (150 mM sodium chloride, 1.0% NP-40, 0.1% SDS, 50 mM Tris pH 8.0, 0.5% sodium deoxycholate supplemented with protease inhibitors cocktail). Cells were kept on icebox during the lysis process. Cold lysis buffer was added to each well directly and then cells were scraped and collected in 1.5 ml Eppendorf tube. Cell lysis was kept on icebox for 20 minutes and then centrifuged at 4° C. for 10 minutes. The supernatant was collected and the pellet was discarded. After, protein quantification, samples were boiled in 5× loading buffer at 95° C. for 5 minutes. After completion of the gel running and transfer process, the membrane was stained with ponceau solution. After that, the membrane was washed with 1×TBST and then blocked in 5% non-fat dry milk for 1 hr at room temperature. The membrane was washed 3 times with 1×TBST and then incubated with indicated primary antibodies at 4° C. overnight. Primary antibodies were removed; the membrane was washed 3 times with 1×TBST and then incubated with secondary antibodies for 2 h at room temperature. Secondary antibodies were diluted in 5% non-fat dry milk in 1× TB ST. After removal of the secondary antibody, the membrane was washed 3 times with 1×TBST. The membrane was incubated in ECL solution and the signal was developed using Gel Doc system from Biorad.

MDA-MB-468 = experiment: MTT cell viability, MDA-MB-468; assay type: cell-based; conditions: Homo sapiens, breast cancer, 48 h of drug treatment, average of three experiments
Procedure: as §4

SKOV3 = experiment: MTT cell viability, SKOV3; assay type: cell-based; conditions: Homo sapiens, SK-OV-3; 48 h of drug treatment; average of three experiments
Procedure: as §4

SKBR3 = experiment: MTT cell viability, SKBR3; assay type: cell-based; conditions: Homo sapiens, SK-BR-3; breast cancer; 48 h of drug treatment; average of three experiments
Procedure: as §4

MDA-MB-231 = experiment: MTT cell viability, MDA-MB-231; assay type: cell-based; conditions: Homo sapiens, breast cancer, 48 h of drug treatment, average of three experiments
Procedure: as §4

Structure (SMILES) | MIC [1] [µg/mL] | MIC [2] [µg/mL] | IC50 (A549) [µM] | IC50 (HCT-116) [nM] | MIC (MRSA-ATCC33591) [µg/mL] | MIC (MRSA-ATCC33592) [µg/mL] | MIC [5] [µg/mL] | IC50 (HEP3B) [nM] | MIC (MRSA-ATCC700699 (VISA)) [µg/mL] | IC50 (HELA) [µM] | IC50 (MCF-7) [µM] | other results
Fc1ccc2c3c4n(c2c1)[C@@]1(C=C/C(=N\Nc2ccc(C(F)(F)F)cc2)CC1)CC[C@@H]4NCC3 [Compound 1g] | 1.56 (≈ 3.33 µM) | 1.56 (≈ 3.33 µM) | 7.44 ± 0.04 | 3020 ± 1200 | 1.56 (≈ 3.33 µM) | 1.56 (≈ 3.33 µM) | 1.56 (≈ 3.33 µM) | 3597 ± 30 | 1.56 (≈ 3.33 µM) | 4.625 ± 0.04 | 5.34 ± 1.8 | MIC ([3]; Escherichia coli, ATCCBAA2469, MDR): 6.25 to 12.5 µg/mL (≈ 13.3 to 26.7 µM); MIC E. coli ATCC BAA2469 (NDM-1 carbapenem-resistant) ([3]; MDR): 6.25 µg/mL (≈ 13.3 µM); MIC (6 MRSA strains): 1.56 µg/mL (≈ 3.33 µM); MIC fold higher than that of colistin ([4]; E. coli CDC-AR-0346, colistin 6.25 μg/mL): 2 fold; MIC ([4]; Escherichia coli, MDR, overnight incubation): 12.5 µg/mL (≈ 26.7 µM); MIC times less than the MIC of vancomycin (MRSA-ATCC700699 (VISA); VISA strain ATCC 700699, vancomycin 8 μg/mL): ~5 times; MIC (E. coli ATCC25922): 6.25 µg/mL (≈ 13.3 µM); MIC [6]: 6.25 µg/mL (≈ 13.3 µM); MIC fold below that of meropenem ([7]; Acinetobacter baumannii ATCC BAA1605, meropenem 12.5 μg/mL): 2 fold; MIC ([7]; Acinetobacter baumannii, ATCCBAA1605, MDR, overnight incubation): 6.25 µg/mL (≈ 13.3 µM)
O=[N+]([O-])c1ccc(N/N=C2\C=C[C@@]3(CC2)CC[C@@H]2NCCc4c2n3c2ccccc42)cc1 [Compound 1d] | 3.12 (≈ 7.31 µM) | 3.12 (≈ 7.31 µM) | 5.22 ± 0.03 | 2490 ± 20 | 3.12 (≈ 7.31 µM) | 3.12 (≈ 7.31 µM) | 3.12 (≈ 7.31 µM) | 2320 ± 160 | 3.12 (≈ 7.31 µM) | 3.14 ± 0.04 | 3.09 ± 0.04 | IC50 (AGS): 5.37 ± 0.17 µM; IC50 (JIMT1): 4 ± 0.1 µM; IC50 [8]: 42.04 ± 0.08 µM; Expression and metabolism of autophagy marker LC3B1/II (Hela cells): upregulate; Expression of DNA damage marker pH2AX (Hela cells): induce; IC50 (MDA-MB-468): 3.06 ± 0.17 µM; IC50 (SKOV3): 6.52 ± 0.2 µM; IC50 (SKBR3): 3.93 ± 0.16 µM; IC50 (MDA-MB-231): 4.22 ± 0.1 µM
